Data on 41 compounds can be found in patent publication US4906662A, “Phenol derivatives, their preparation and the use thereof” (Otsuka Pharmaceutical Factory, Inc., priority 1986, dated 1990).

The structures appear in SMILES notation. Structures can show the parent of a compound that is named as a salt.

One may read the inhibition as the relative decrease from the control value, in per cent.

Assay [1] relates to carrageenin-induced paw edema. Nature of the assay: Anti-inflammatory activity: inhibition of carrageenin-induced paw edema in rats. In kind it is in vivo, rat (S.D. strain, male). Conditions: po, read-out: Percent inhibition of edema; for inhibition in vivo at 100 mg/kg: 100 mg/kg p.o., rat, 3 hours after carrageenin. Here is the method: (1) Anti-inflammatory activity:inhibition of carrageenin-induced paw edema in rats The compound was tested for the above activity according to the method of Winter et al. [Proc. Soc. […] One hour after the test compound was orally given to the animal, 0.1 ml of 1% carrageenin solution was subcutaneously injected into the right footpad. The paw volume was measured 3 hours thereafter, and the resulting increase in the volume was calculated based on the volume before the injection of carrageenin solution. The percent inhibition was determined in comparison with the increase in the control group.

Assay [2] deals with T1, 5-lipoxygenase (Cavia porcellus, UniProt A0A286X958).
T1 construct: endogenous in cells; host or cells: guinea pig peritoneal exudate cells (casein-elicited), intact cell suspension
T1 sequence (A0A286X958 1-674): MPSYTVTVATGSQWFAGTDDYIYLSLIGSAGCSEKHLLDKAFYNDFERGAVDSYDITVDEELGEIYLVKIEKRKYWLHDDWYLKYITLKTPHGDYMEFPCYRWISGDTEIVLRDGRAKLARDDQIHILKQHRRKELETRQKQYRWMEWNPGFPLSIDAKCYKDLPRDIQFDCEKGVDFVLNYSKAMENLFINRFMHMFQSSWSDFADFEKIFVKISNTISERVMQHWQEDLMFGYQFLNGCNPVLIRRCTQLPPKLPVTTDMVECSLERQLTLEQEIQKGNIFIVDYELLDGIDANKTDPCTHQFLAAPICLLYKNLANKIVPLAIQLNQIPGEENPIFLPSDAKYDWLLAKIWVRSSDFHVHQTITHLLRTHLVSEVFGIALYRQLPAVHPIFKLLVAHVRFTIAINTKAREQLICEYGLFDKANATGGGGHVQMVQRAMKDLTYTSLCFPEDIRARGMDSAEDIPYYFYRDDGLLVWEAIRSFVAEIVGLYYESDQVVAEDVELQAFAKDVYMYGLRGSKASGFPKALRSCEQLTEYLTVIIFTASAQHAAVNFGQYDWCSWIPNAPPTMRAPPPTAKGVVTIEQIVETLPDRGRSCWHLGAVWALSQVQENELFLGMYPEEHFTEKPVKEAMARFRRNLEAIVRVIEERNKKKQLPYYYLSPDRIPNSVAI
Nature of the assay: 5-Lipoxygenase inhibitory activity (5-HETE formation in guinea pig peritoneal exudate cells). Format: cell-based. Conditions: read-out: Percent inhibition of 5-lipoxygenase. Here is the method: (J. Biol. Chem., 256, 4156 (1981)) and to the method of Ochi et al. (J. Biol. Chem., 258, 5754 (1983). More specifically, 2% casein was intraperitoneally given to a guinea pig, which was bleeded to death 14 to 16 hours thereafter. The peritoneal cavity was washed to collect exudate cells, which were suspended in a phosphate buffer containing 1 mM CaCl2 and 5.5 mM glucose to a concentration of 2.5×10^7 cells/ml. The cell suspension was incubated at 30° C. for 2 minutes. The test compound was then added to the cell suspension, followed by incubation for 2 minutes. With addition of 10 μM of A23187 first and then 10 μM of ^14 C-arachidonic acid to the resulting suspension. Then, the suspension was incubated for 3 minutes. […] The arachidonic acid, 5(S)-hydroxy-6,8,11,14-eicosatetraenoic acid (5-HETE) and other portions were thereafter scraped off, and ^14 C was counted by a scintillator.

In the case of `CC(C)(C)c1cc(Nc2ccccc2)cc(C(C)(C)C)c1O` [2,6-di-tert-butyl-4-phenylaminophenol, reference compound], in assay [1], the inhibition in vivo at 100 mg/kg is 62%. Besides, in assay [2], the inhibition at 1 µM was determined as 2% and the inhibition at 10 µM worked out at 62%.
`CC(C)(C)c1cc(Nc2ccc(F)cc2)cc(C(C)(C)C)c1O` [Compound 1, 2,6-di-tert-butyl-4-(4-fluorophenylamino)phenol]: in assay [1], the inhibition in vivo at 100 mg/kg worked out at 57%. Besides, in assay [2], the inhibition at 1 µM turned out to be 24% and the inhibition at 10 µM amounted to 36%.
As for `CC(C)(C)c1cc(Nc2ccccc2Cl)cc(C(C)(C)C)c1O` [Compound 2], the inhibition in vivo at 100 mg/kg in assay [1] is 12%.
On to `CC(C)(C)c1cc(Nc2ccccc2O)cc(C(C)(C)C)c1O` [Compound 3], for which, in assay [1], the inhibition in vivo at 100 mg/kg turned out to be 25%.
In the case of `CC(C)(C)c1cc(Nc2cccc(C(F)(F)F)c2)cc(C(C)(C)C)c1O` [Compound 4], the inhibition in vivo at 100 mg/kg in assay [1] came to 16%.
As to `CC(C)(C)c1cc(Nc2ccc(CC(=O)O)cc2)cc(C(C)(C)C)c1O` [Compound 5], in assay [2], the inhibition at 1 µM is 21% and the inhibition at 10 µM amounted to 46%.
Turning to `COc1ccc(Nc2cc(C(C)(C)C)c(O)c(C(C)(C)C)c2)cc1` [Compound 7], in assay [1], the inhibition in vivo at 100 mg/kg is 41%. Further, the inhibition at 10 µM in assay [2] was found to be 49%.
Consider `CC(=O)c1ccc(Nc2cc(C(C)(C)C)c(O)c(C(C)(C)C)c2)cc1` [Compound 9], for which, in assay [2], the inhibition at 1 µM amounted to 27% and the inhibition at 10 µM was 67%.
`CSc1ccccc1Nc1cc(C(C)(C)C)c(O)c(C(C)(C)C)c1` [Compound 12]: the inhibition in vivo at 100 mg/kg in assay [1] was 41%.
For `CC(C)(C)c1cc(Nc2cc(Cl)ccc2O)cc(C(C)(C)C)c1O` [Compound 19], in assay [2], the inhibition at 1 µM is 37% and the inhibition at 10 µM amounted to 58%.
Regarding `Cc1ccc(Nc2cc(C(C)(C)C)c(O)c(C(C)(C)C)c2)cc1` [Compound 20], in assay [2], the inhibition at 1 µM worked out at 16% and the inhibition at 10 µM came out at 51%.
The like results for `CC(C)(C)c1cc(Nc2ccc(CCCC(=O)O)cc2)cc(C(C)(C)C)c1O` [Compound 22] were, in that order, 28% and 67%.
As for `CC(C)(C)c1cc(Nc2cccc(C(=O)O)c2)cc(C(C)(C)C)c1O` [Compound 24, 2,6-di-tert-butyl-4-(3-carboxyphenylamino)phenol], in assay [2], the inhibition at 1 µM worked out at 26% and the inhibition at 10 µM is 51%.
For `CC(C)(C)c1cc(Nc2ccccc2C(=O)O)cc(C(C)(C)C)c1O` [Compound 25, 2,6-di-tert-butyl-4-(2-carboxyphenylamino)phenol], the inhibition at 10 µM in assay [2] amounted to 66%.
In the case of `CC(C)(C)c1cc(Nc2ccc(C(=O)O)cc2)cc(C(C)(C)C)c1O` [Compound 26], in assay [2], the inhibition at 1 µM stood at 33% and the inhibition at 10 µM is 71%.
Regarding `CC(C)(C)c1cc(Nc2ccc(C#N)cc2)cc(C(C)(C)C)c1O` [Compound 28, 2,6-di-tert-butyl-4-(4-cyanophenylamino)phenol], the inhibition in vivo at 100 mg/kg in assay [1] worked out at 58%.
In the case of `Cc1ccc(Nc2cc(C(C)(C)C)c(O)c(C(C)(C)C)c2)c(C(=O)O)c1` [Compound 29], in assay [2], the inhibition at 1 µM came to 19% and the inhibition at 10 µM turned out to be 71%.
As for `CC(C)(C)c1cc(Nc2ccc(CCO)cc2)cc(C(C)(C)C)c1O` [Compound 33], in assay [2], the inhibition at 1 µM is 52% and the inhibition at 10 µM was determined as 86%.
For `CC(C)(C)c1cc(Nc2ccc(Cl)cc2CO)cc(C(C)(C)C)c1O` [Compound 38, 2,6-di-tert-butyl-4-(4-chloro-2-hydroxymethylphenylamino)phenol], the inhibition in vivo at 100 mg/kg in assay [1] came to 79%.
For `CN(C)c1ccc(Nc2cc(C(C)(C)C)c(O)c(C(C)(C)C)c2)cc1` [Compound 42, 4-(4-dimethylaminophenylamino)-2,6-di-tert-butylphenol dihydrochloride], in assay [2], the inhibition at 1 µM was determined as 19% and the inhibition at 10 µM is 50%.
As for `CC(C)(C)c1cc(Nc2ccccc2/C=C/C(=O)O)cc(C(C)(C)C)c1O` [Compound 48, 2-(3,5-di-tert-butyl-4-hydroxyphenylamino)cinnamic acid], the inhibition in vivo at 100 mg/kg in assay [1] is 62%.
For `CCCCCC(=O)/C=C/c1cccc(Nc2cc(C(C)(C)C)c(O)c(C(C)(C)C)c2)c1` [Compound 51], the inhibition in vivo at 100 mg/kg in assay [1] stood at 10%.
With `CCOC(=O)/C=C/c1cccc(Nc2cc(C)c(O)c(C)c2C)c1` [Compound 52, ethyl 3-(4-hydroxy-2,3,5-trimethylphenylamino)cinnamate hydrochloride], in assay [2], the inhibition at 1 µM stood at 75% and the inhibition at 10 µM amounted to 95%.
As to `CCCCCCCCCNC(=O)c1ccc(Nc2cc(C(C)(C)C)c(O)c(C(C)(C)C)c2)cc1` [Compound 63], the inhibition in vivo at 100 mg/kg in assay [1] is 29%.
Same read-out and setting: next, `CCCCCCNC(=O)/C=C/c1cccc(Nc2cc(C(C)(C)C)c(O)c(C(C)(C)C)c2)c1` [Compound 66]: 15%; `CC(C)(C)c1cc(Nc2ccc(CC(=O)N3CCOCC3)cc2)cc(C(C)(C)C)c1O` [Compound 71]: 20%.
`CC(C)(C)c1cc(Nc2ccc(CC(=O)NN)cc2)cc(C(C)(C)C)c1O` [Compound 76, 2,6-di-tert-butyl-4-(4-hydrazinocarbonylmethylphenylamino)phenol]: in assay [1], the inhibition in vivo at 100 mg/kg was 47%.
Take `Cc1cc(Nc2ccccc2)c2c(c1O)CCCC2` [Compound 80, 2-methyl-4-phenylamino-5,6,7,8-tetrahydronaphthol]: in assay [2], the inhibition at 1 µM is 78% and the inhibition at 10 µM came out at 94%.
Turning to `Cc1ccc(Nc2cc(C)c(O)c(C)c2C)cc1` [Compound 81, 2,3,6-trimethyl-4-(4-methylphenylamino)phenol], in assay [2], the inhibition at 1 µM was 91% and the inhibition at 10 µM came to 95%.
With `COC(=O)Cc1ccc(Nc2cc(C)c(O)c(C)c2C)cc1` [Compound 86, 4-(4-methoxycarbonylmethylphenylamino)-2,3,6-trimethylphenol], in assay [2], the inhibition at 1 µM came to 93% and the inhibition at 10 µM came out at 92%.
On to `COC(=O)Cc1ccc(Nc2cc(C)c(O)c3c2CCCC3)cc1` [Compound 87, 2-methyl-4-(4-methoxycarbonylmethylphenylamino)-5,6,7,8-tetrahydronaphthol], for which, in assay [2], the inhibition at 1 µM stood at 89% and the inhibition at 10 µM stood at 95%.
As to `CC(C)(C)c1cc(Nc2cccc(C(N)=O)c2)cc(C(C)(C)C)c1O` [Compound 89], the inhibition in vivo at 100 mg/kg in assay [1] is 31%.
Regarding `COc1ccc(Nc2cc(C)c(O)c(C)c2C)cc1` [Compound 91, 2,3,6-trimethyl-4-(4-methoxyphenylamino)phenol], in assay [2], the inhibition at 1 µM was determined as 95% and the inhibition at 10 µM was found to be 95%.
Turning to `CC(C)(C)c1cc(Nc2ccc(S(C)(=O)=O)cc2)cc(C(C)(C)C)c1O` [Compound 92], in assay [1], the inhibition in vivo at 100 mg/kg stood at 35%.
For `CC(C)(C)c1cc(Nc2ccc(S(N)(=O)=O)cc2)cc(C(C)(C)C)c1O` [Compound 93], the inhibition in vivo at 100 mg/kg in assay [1] came to 16%.
Take `Cc1cc(Nc2ccc(Cl)cc2)c(C)c(C)c1O` [Compound 94, 2,3,6-trimethyl-4-(4-chlorophenylamino)phenol]: in assay [2], the inhibition at 1 µM was 90% and the inhibition at 10 µM was found to be 96%.
Take `Cc1cc(Nc2ccc(C(=O)O)cc2)c(C)c(C)c1O` [Compound 102]: in assay [2], the inhibition at 1 µM was found to be 42% and the inhibition at 10 µM worked out at 90%.
On to `Cc1cc(Nc2cccc(CC(=O)O)c2)c(C)c(C)c1O` [Compound 103], for which, in assay [2], the inhibition at 1 µM is 41% and the inhibition at 10 µM is 91%.
Consider `Cc1cc(Nc2ccc(CC(=O)O)cc2)c2c(c1O)CCCC2` [Compound 104], for which, in assay [2], the inhibition at 1 µM stood at 55% and the inhibition at 10 µM was found to be 90%.
Take `CC(Cc1ccc(O)c(O)c1)C(C)Cc1ccc(O)c(O)c1` (stereo not drawn) [NDGA, nordihydroguaiaretic acid, reference compound]: the inhibition at 1 µM in assay [2] came out at 45%.
On to `COc1ccc2c(c1)c(CC(=O)O)c(C)n2C(=O)c1ccc(Cl)cc1` [indomethacin, reference compound], for which the inhibition in vivo at 5 mg/kg in assay [1] (Rattus norvegicus, 3 h) came to 62%.
